Assay results from ChEMBL document CHEMBL1275550, “In vitro activity of doripenem, a carbapenem for the treatment of challenging infections caused by gram-negative bacteria, against recent clinical isolates from the United States” (2008).

Experiments:
Format in all cases: functional
Citrobacter [1] = test: Antimicrobial activity against Citrobacter with derepressed AmpC beta-lactamsae assessed as resistant isolate by broth microdilution method
Pseudomonas aeruginosa [2] = test: Antimicrobial activity against imipenem susceptible Pseudomonas aeruginosa assessed as resistant isolate by broth microdilution method
Escherichia coli [3] = test: Antimicrobial activity against ESBL producing Escherichia coli assessed as susceptible isolate by broth microdilution method in presence of Tazobactam
Escherichia coli [4] = test: Antimicrobial activity against ESBL producing Escherichia coli assessed as intermediate isolate by broth microdilution method in presence of Tazobactam
Klebsiella pneumoniae = test: Antimicrobial activity against ESBL producing Klebsiella pneumoniae assessed as resistant isolate by broth microdilution method in presence of Tazobactam
Pseudomonas aeruginosa [5] = test: Antimicrobial activity against Pseudomonas aeruginosa isolated from ICU patient assessed as intermediate isolate by broth microdilution method in presence of Tazobactam
Citrobacter [6] = test: Antimicrobial activity against Citrobacter with nonderepressed AmpC beta-lactamsae by broth microdilution method in presence of Tazobactam
Serratia marcescens [7] = test: Antimicrobial activity against Ceftazidime susceptible Serratia marcescens assessed as intermediate isolate by broth microdilution method in presence of tazobactam
Serratia marcescens [8] = test: Antimicrobial activity against ceftazidime non-susceptible Serratia marcescens assessed as resistant isolate by broth microdilution method in presence of Tazobactam
Pseudomonas aeruginosa [9] = test: Antimicrobial activity against ceftazidime susceptible Pseudomonas aeruginosa by broth microdilution method in presence of Tazobactam
Pseudomonas aeruginosa [10] = test: Antimicrobial activity against Ceftazidime susceptible Pseudomonas aeruginosa assessed as intermediate isolate by broth microdilution method in presence of tazobactam
Pseudomonas aeruginosa [11] = test: Antimicrobial activity against ceftazidime non-susceptible Pseudomonas aeruginosa assessed as susceptible isolate by broth microdilution method in presence of Tazobactam
Pseudomonas aeruginosa [12] = test: Antimicrobial activity against Ceftazidime non-susceptible Pseudomonas aeruginosa assessed as intermediate isolate by broth microdilution method in presence of tazobactam
Acinetobacter [13] = test: Antimicrobial activity against imipenem susceptible Acinetobacter assessed as susceptible isolate by broth microdilution method in presence of Tazobactam
Acinetobacter [14] = test: Antimicrobial activity against imipenem non-susceptible Acinetobacter assessed as resistant isolate by broth microdilution method in presence of Tazobactam

Structure (SMILES) | Activity (Citrobacter [1]) [%] | Activity (Pseudomonas aeruginosa [2]) [%] | Activity (Escherichia coli [3]) [%] | Activity (Escherichia coli [4]) [%] | Activity (Klebsiella pneumoniae) [%] | Activity (Pseudomonas aeruginosa [5]) [%] | MIC50 (Citrobacter [6]) [µg/mL] | MIC90 (Citrobacter [6]) [µg/mL] | Activity (Serratia marcescens [7]) [%] | Activity (Serratia marcescens [8]) [%] | MIC50 (Pseudomonas aeruginosa [9]) [µg/mL] | MIC90 (Pseudomonas aeruginosa [9]) [µg/mL] | Activity (Pseudomonas aeruginosa [10]) [%] | Activity (Pseudomonas aeruginosa [11]) [%] | Activity (Pseudomonas aeruginosa [12]) [%] | Activity (Acinetobacter [13]) [%] | Activity (Acinetobacter [14]) [%]
CC(C)(O/N=C(\C(=O)N[C@@H]1C(=O)N2C(C(=O)[O-])=C(C[n+]3ccccc3)CS[C@H]12)c1csc(N)n1)C(=O)O [CEFTAZIDIME] | 100 | 6.9 |  |  |  |  |  |  |  |  |  |  |  |  |  |  | 
CCN1CCN(C(=O)N[C@@H](C(=O)N[C@@H]2C(=O)N3[C@@H]2SC(C)(C)[C@@H]3C(=O)O)c2ccccc2)C(=O)C1=O [PIPERACILLIN] |  |  | 53.3 | 16.7 | 77.3 | 0 | 4 | 16 | 4.4 | 50 | 16 | 64 | 0 | 17.3 | 0 | 52.1 | 96.1
